Test results published in patent US20250049798A1, “WEE1 PROTEIN KINASE DEGRADATION AGENT AND USE THEREOF” (HANGZHOU GLUBIO PHARMACEUTICAL CO. LTD., priority 2021, published 2025).
Like-named read-outs stand apart in the source and are kept apart here.

Target: HiBiT tagged Wee1 (Homo sapiens, UniProt P30291)
Test: Wee1 protein degradation assay (HiBiT assay)
Type: cell-based
Details: for Dmax: maximum percentage of Wee1 degradation, read-out: HiBiT Wee1: Dmax
[1] = engineered HT-1080 cells, 20 hours

HiBiT tagged Wee1, sequence (P30291 whole entry): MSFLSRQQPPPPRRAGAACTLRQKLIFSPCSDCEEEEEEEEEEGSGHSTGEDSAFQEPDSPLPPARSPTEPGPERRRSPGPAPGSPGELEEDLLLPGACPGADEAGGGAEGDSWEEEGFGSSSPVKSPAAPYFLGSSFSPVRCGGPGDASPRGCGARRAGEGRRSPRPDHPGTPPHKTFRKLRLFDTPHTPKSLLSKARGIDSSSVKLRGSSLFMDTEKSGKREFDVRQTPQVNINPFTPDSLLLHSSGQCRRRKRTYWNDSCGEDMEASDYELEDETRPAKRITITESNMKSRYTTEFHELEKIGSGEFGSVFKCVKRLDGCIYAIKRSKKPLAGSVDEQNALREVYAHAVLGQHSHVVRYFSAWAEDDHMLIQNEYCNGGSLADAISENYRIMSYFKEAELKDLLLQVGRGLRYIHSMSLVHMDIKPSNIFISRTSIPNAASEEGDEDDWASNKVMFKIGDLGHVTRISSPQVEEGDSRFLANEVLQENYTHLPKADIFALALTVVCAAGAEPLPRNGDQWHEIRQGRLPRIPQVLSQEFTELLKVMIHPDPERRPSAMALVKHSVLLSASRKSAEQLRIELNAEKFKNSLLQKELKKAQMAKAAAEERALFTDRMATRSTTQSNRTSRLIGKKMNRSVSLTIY

## C=CCn1c(=O)c2cnc(Nc3ccc(C4CCN(C5CCN(c6ccc7c(c6)C(=O)N(C6CCC(=O)NC6=O)C7=O)C5)CC4)cc3)nc2n1-c1cccc(C(C)(C)O)n1 (stereo not drawn) [Compound 39]
[1]
  DC50: 0.1 to 1 µM
  Dmax: 50 to 75%

## C=CCn1c(=O)c2cnc(Nc3ccc(C4CCN(C5CN(c6ccc(NC7CCC(=O)NC7=O)cc6F)C5)CC4)cc3)nc2n1-c1cccc(C(C)(C)O)n1 (stereo not drawn) [Compound 148]
[1]
  DC50: < 0.1 µM
  Dmax: > 75%

## C=CCn1c(=O)c2cnc(Nc3ccc(N4CCN(CC5CN(c6ccc7c(c6)C(=O)N(C6CCC(=O)NC6=O)C7=O)C5)CC4)c(C)c3)nc2n1-c1cccc(C(C)(C)O)n1 (stereo not drawn) [Compound 12]
[1]
  DC50: < 0.1 µM
  Dmax: 50 to 75%

## C=CCn1c(=O)c2cnc(Nc3ccc(C4CCN(CC5CCN(c6ccc(NC7CCC(=O)NC7=O)cc6C(F)(F)F)CC5)CC4)cc3)nc2n1-c1cccc(C(C)(C)O)n1 (stereo not drawn) [Compound 107]
[1]
  DC50: < 0.1 µM
  Dmax: > 75%

## C=CCn1c(=O)c2cnc(Nc3ccc(N4CCC(CN5CCN(c6ccc(OC7CCC(=O)NC7=O)cc6F)CC5)CC4)cc3)nc2n1-c1cccc(C(C)(C)O)n1 (stereo not drawn) [Compound 149]
[1]
  DC50: < 0.1 µM
  Dmax: > 75%

## C=CCn1c(=O)c2cnc(Nc3ccc(N4CCC(CN5CCN(c6ccc(NC7CCC(=O)NC7=O)cc6F)CC5)CC4)cc3)nc2n1-c1ccc2c(n1)[C@](C)(O)CC2 (single isomer, unassigned) [Compound 120]
[1]
  DC50: < 0.1 µM
  Dmax: 50 to 75%

## C=CCn1c(=O)c2cnc(Nc3ccc(C4CCN(C5CCN(c6cccc7c6n(C)c(=O)n7C6CCC(=O)NC6=O)CC5)CC4)cc3)nc2n1-c1cccc(C(C)(C)O)n1 (stereo not drawn) [Compound 99]
[1]
  DC50: < 0.1 µM
  Dmax: 50 to 75%

## C=CCn1c(=O)c2cnc(Nc3ccc(N4CCC(N5CCN(c6ccc7c(c6)C(=O)N(C6CCC(=O)NC6=O)C7=O)CC5)CC4)cc3)nc2n1-c1cccc(C(C)(C)O)n1 (stereo not drawn) [Compound 77]
[1]
  DC50: < 0.1 µM
  Dmax: 50 to 75%

## C=CCn1c(=O)c2cnc(Nc3ccc(N4CCN(CC5CCN(c6ccc7c(N8CCC(=O)NC8=O)nn(C)c7c6)CC5)CC4)c(C)c3)nc2n1-c1ccc2c(n1)[C@@](C)(O)CC2 [Compound 138]
[1]
  DC50: < 0.1 µM
  Dmax: 50 to 75%

## C=CCn1c(=O)c2cnc(Nc3ccc(N4CCN(CC5CCN(c6ccc(NC7CCC(=O)NC7=O)cc6F)CC5)CC4)c(Cl)c3)nc2n1-c1ccc2c(n1)[C@@](O)(CC)CC2 (stereo partly drawn) [Compound 167]
[1]
  DC50: < 0.1 µM
  Dmax: > 75%

## C=CCn1c(=O)c2cnc(Nc3ccc(N4CCN(C5CCN(c6ccc7c(c6)C(=O)N(C6CCC(=O)NC6=O)C7=O)CC5)CC4)cc3)nc2n1-c1cccc(C(C)(C)O)n1 (stereo not drawn) [Compound 40]
[1]
  DC50: < 0.1 µM
  Dmax: 50 to 75%

## C=CCn1c(=O)c2cnc(Nc3ccc(N4CCC(N5CC[C@H](c6ccc(NC7CCC(=O)NC7=O)cc6F)C(F)(F)C5)CC4)cc3)nc2n1-c1ccc2c(n1)[C@@](O)(CC)CC2 (single isomer, unassigned) [Compound 183]
[1]
  DC50: < 0.1 µM
  Dmax: > 75%

## C=CCn1c(=O)c2cnc(Nc3ccc(N4CCN(CC5CCN(c6ccc(NC7CCC(=O)NC7=O)nc6)CC5)CC4)cc3)nc2n1-c1ccc2c(n1)[C@@](O)(CC)CC2 (stereo partly drawn) [Compound 203]
[1]
  DC50: < 0.1 µM
  Dmax: 50 to 75%

## C=CCn1c(=O)c2cnc(Nc3ccc(N4CC(N5CC6(CCN(c7ccc(NC8CCC(=O)NC8=O)cc7F)CC6)C5)C4)cc3)nc2n1-c1ccc2c(n1)[C@@](O)(CC)CC2 (stereo partly drawn) [Compound 172]
[1]
  DC50: < 0.1 µM
  Dmax: 50 to 75%

## C=CCn1c(=O)c2cnc(Nc3ccc(C4CCN(C5CCN(c6cc7c(cc6F)C(=O)N(C6CCC(=O)NC6=O)C7=O)CC5)CC4)cc3)nc2n1-c1cccc(C(C)(C)O)n1 (stereo not drawn) [Compound 44]
[1]
  DC50: < 0.1 µM
  Dmax: 50 to 75%

## C=CCn1c(=O)c2cnc(Nc3ccc(N4CCN(C[C@@H]5CCN(c6ccc7c(c6)C(=O)N(C6CCC(=O)NC6=O)C7=O)C5)CC4)cc3)nc2n1-c1cccc(C(C)(C)O)n1 (stereo partly drawn) [Compound 38]
[1]
  DC50: < 0.1 µM
  Dmax: 50 to 75%

## C=CCn1c(=O)c2cnc(Nc3ccc(N4CCN(CC5CCN(c6c(F)cc(NC7CCC(=O)NC7=O)cc6F)CC5)CC4)cc3)nc2n1-c1ccc2c(n1)[C@@](O)(CC)CC2 (stereo partly drawn) [Compound 175]
[1]
  DC50: < 0.1 µM
  Dmax: > 75%

## C=CCn1c(=O)c2cnc(Nc3ccc(N4CCN(CC5CCN(c6cccc7c(N8CCC(=O)NC8=O)nn(C)c67)CC5)CC4)cc3)nc2n1-c1ccc2c(n1)[C@@](O)(CC)CC2 [Compound 124]
[1]
  DC50: < 0.1 µM
  Dmax: 50 to 75%

## Cc1cc(Nc2ncc3c(n2)N(C)CN(c2c(Cl)cccc2Cl)C3=O)ccc1N1CCC(CN2CCC(c3ccc4c(c3)C(=O)N(C3CCC(=O)NC3=O)C4=O)CC2)CC1 (stereo not drawn) [Compound 33]
HT-1080, […]
  Dmax: < 50%
[1]
  DC50: > 1 µM

## C=CCn1c(=O)c2cnc(Nc3ccc(N4CCC(CC(=O)Nc5cccc6c(N7CCC(=O)NC7=O)nn(C)c56)CC4)cc3)nc2n1-c1ccc2c(n1)[C@@](O)(CC)CC2 [Compound 202]
[1]
  DC50: > 1 µM
  Dmax: < 50%

## C=CCn1c(=O)c2cnc(Nc3ccc(N4CCC(CN5CCN(c6ccc7c(c6)C(=O)N(C6CCC(=O)NC6=O)C7=O)CC5)CC4)cc3)nc2n1-c1cccc(C(C)(C)O)n1 (stereo not drawn) [Compound 56]
[1]
  DC50: < 0.1 µM
  Dmax: 50 to 75%

## C=CCn1c(=O)c2cnc(Nc3ccc(N4CCN(CC5CCN(c6ccc(NC7CCC(=O)NC7=O)cc6F)CC5)CC4)c(C)c3)nc2n1-c1ccc2c(n1)[C@@](C)(O)CC2 (stereo partly drawn) [Compound 131]
[1]
  DC50: < 0.1 µM
  Dmax: > 75%

## C[C@@]1(O)CC/C=C\Cn2c(=O)c3cnc(Nc4ccc(N5CCN(CC6CCN(c7ccc(NC8CCC(=O)NC8=O)cc7F)CC6)CC5)cc4)nc3n2-c2cccc1n2 (single isomer, unassigned) [Compound 142]
[1]
  DC50: < 0.1 µM
  Dmax: 50 to 75%

## C=CCn1c(=O)c2cnc(Nc3ccc(N4CCC(CN5CCN(c6ccc(NC7CCC(=O)NC7=O)cc6F)CC5)CC4)c(C)c3)nc2n1-c1ccc2c(n1)[C@](C)(O)CC2 (stereo partly drawn) [Compound 132]
[1]
  DC50: < 0.1 µM
  Dmax: > 75%

## Cc1cc(Nc2ncc3c(n2)N(C)CN(c2c(Cl)cccc2Cl)C3=O)ccc1N1CCC(CN2CCN(c3cccc4c3C(=O)N(C3CCC(=O)NC3=O)C4=O)CC2)CC1 (stereo not drawn) [Compound 31]
[1]
  DC50: > 1 µM
  Dmax: < 50%

## C=CCn1c(=O)c2cnc(Nc3ccc(N4CCN(CC5CCN(c6ccc(NC7CCC(=O)NC7=O)cc6F)CC5)CC4)cc3)nc2n1-c1ccc2c(n1)[C@@](O)(CC)CCC2 (single isomer, unassigned) [Compound 188]
[1]
  DC50: < 0.1 µM
  Dmax: > 75%

## C=CCn1c(=O)c2cnc(Nc3ccc(N4CCC(CN5CCN(c6ccc7c(N8CCC(=O)NC8=O)nn(C)c7c6)CC5)CC4)cc3)nc2n1-c1ccc2c(n1)[C@@](C)(O)CC2 [Compound 126]
[1]
  DC50: < 0.1 µM
  Dmax: 50 to 75%

## C=CCn1c(=O)c2cnc(Nc3ccc(N4CCC(CN5CCN(c6ccc7c(N8CCC(=O)NC8=O)nn(C)c7c6)CC5)CC4)c(C)c3)nc2n1-c1ccc2c(n1)[C@@](O)(CC)CC2 [Compound 135]
[1]
  DC50: < 0.1 µM
  Dmax: > 75%

## C=CCn1c(=O)c2cnc(Nc3ccc(N4CCN(CC5CCN(c6ccc(NC7CCC(=O)NC7=O)cc6F)CC5)CC4)cc3)nc2n1-c1cccc(C(C)(C)C)n1 (stereo not drawn) [Compound 204]
[1]
  DC50: < 0.1 µM
  Dmax: > 75%

## C=CCn1c(=O)c2cnc(Nc3ccc(N4CCN(CC5CCN(c6ccc(NC7CCC(=O)NC7=O)cc6F)CC5)[C@H](COC)C4)cc3)nc2n1-c1ccc2c(n1)[C@@](O)(CC)CC2 (stereo partly drawn) [Compound 206]
[1]
  DC50: < 0.1 µM
  Dmax: > 75%

## O=C1CCC(N2C(=O)c3ccc(N4CCC(CN5CCc6ccc(Nc7ncc8c(=O)n(-c9c(Cl)cccc9Cl)c9nccn9c8n7)cc6C5)CC4)cc3C2=O)C(=O)N1 (stereo not drawn) [Compound 5]
[1]
  DC50: > 1 µM
  Dmax: < 50%

## COc1ccc(C(=O)N2CCC3(CCN(Cc4ccc(Nc5ncc6c(=O)n(-c7c(Cl)cccc7Cl)c7nccn7c6n5)cc4)CC3)CC2)cc1N1CCC(=O)NC1=O [Compound 59]
[1]
  DC50: > 1 µM
  Dmax: < 50%

## O=C1CCC(N2C(=O)c3ccc(N4CC(CN5CCC(c6ccc(Nc7ncc8c(=O)n(-c9c(Cl)cccc9Cl)c9nccn9c8n7)cc6)CC5)C4)cc3C2=O)C(=O)N1 (stereo not drawn) [Compound 13]
[1]
  DC50: < 0.1 µM
  Dmax: 50 to 75%

## COc1ccc(C(=O)N2CCC(OC3CCN(Cc4ccc(Nc5ncc6c(=O)n(-c7c(Cl)cccc7Cl)c7nccn7c6n5)cc4)CC3)CC2)cc1N1CCC(=O)NC1=O [Compound 60]
[1]
  DC50: > 1 µM
  Dmax: < 50%

## C=CCn1c(=O)c2cnc(Nc3ccc(N4CCN(CC5CCN(c6ccc(NC7CCC(=O)NC7=O)cc6F)CC5)CC4)cc3)nc2n1-c1ccc2c(n1)[C@](C)(O)CCC2 (single isomer, unassigned) [Compound 190]
[1]
  DC50: < 0.1 µM
  Dmax: > 75%

## C=CCn1c(=O)c2cnc(Nc3ccc4c(c3)CN(CCCCc3cccc5c3CN(C3CCC(=O)NC3=O)C5=O)CC4)nc2n1-c1cccc(C(C)(C)O)n1 (stereo not drawn) [Compound 49]
[1]
  DC50: > 1 µM
  Dmax: < 50%

## C=CCn1c(=O)c2cnc(Nc3ccc(N4CCC(N5CC6(CN(c7ccc8c(N9CCC(=O)NC9=O)nn(C)c8c7)C6)C5)C(F)(F)C4)cc3)nc2n1-c1ccc2c(n1)[C@@](O)(CC)CC2 (stereo partly drawn) [Compound 178]
[1]
  DC50: < 0.1 µM
  Dmax: 50 to 75%

## C=CCn1c(=O)c2cnc(Nc3ccc(N4CCN(C5CCN(c6ccc(NC7CCC(=O)NC7=O)cc6F)CC5)CC4)cc3)nc2n1-c1ccc2c(n1)[C@@](O)(CC)CC2 (stereo partly drawn) [Compound 155]
[1]
  DC50: < 0.1 µM
  Dmax: > 75%

## C=CCn1c(=O)c2cnc(Nc3ccc(N4CCN(C5CC6(CCN(c7ccc(NC8CCC(=O)NC8=O)cc7F)CC6)C5)CC4)cc3)nc2n1-c1ccc2c(n1)[C@@](O)(CC)CC2 (stereo partly drawn) [Compound 165]
[1]
  DC50: < 0.1 µM
  Dmax: > 75%

## CN1CN(c2c(Cl)cccc2Cl)C(=O)c2cnc(Nc3ccc4c(c3)CN(CC3CN(c5ccc6c(c5)C(=O)N(C5CCC(=O)NC5=O)C6=O)C3)CC4)nc21 (stereo not drawn) [Compound 20]
[1]
  DC50: > 1 µM
  Dmax: < 50%

## O=C1CCC(Nc2ccc(N3CCC(CN4CCN(c5ccc(Nc6ncc7c(=O)n(-c8c(Cl)cccc8Cl)c8nccn8c7n6)cc5)CC4)CC3)c(F)c2)C(=O)N1 (stereo not drawn) [Compound 83]
[1]
  DC50: < 0.1 µM
  Dmax: > 75%

## C=CCn1c(=O)c2cnc(Nc3ccc(N4CCN(CCC5CCN(C(=O)c6ccc(OC)c(N7CCC(=O)NC7=O)c6)CC5)CC4)cc3)nc2n1-c1cccc(C(C)(C)O)n1 [Compound 29]
[1]
  DC50: > 1 µM
  Dmax: < 50%
